Each structure is given as a SMILES string.

Series [1] deals with cerebellar symptoms of SCA14. Briefly: Case report: person with SCA14 taking varenicline (Example 2, second patient). The series is classed as in vivo, human. To be noted: for effect of prior medications on cerebellar symptoms: SCA14 patient, before varenicline; for total SARA score: blinded rating. How it is done: The second patient was a person who presented to an academic movement disorders center for neurologic evaluation. […] They had never smoked or used drugs or alcohol and had no allergies. Their medical history was significant for hypertension, which was treated with 325 mg of valsartan (Diovan). Prior medications to treat their cerebellar symptoms included levodopa/carbidopa (Sinemet), lorazepam (Ativan), clonazapem (Klonopin), and zolpidem (Ambien), to no avail.
On evaluation, the patient's vital signs and physical examination were normal. Their neurologic examination included a Mini-Mental Status Examination of 30/30, mild dysarthria, mild postural and intention tremor, and moderate dysmetria in all extremities. Their gait consisted of moderate to severe ataxia, and they required the constant use of a walker or the support of a cane to ambulate. The patient could tandem walk only with support. Increased tone and hyperreflexia were present in their lower extremities, with occasional myoclonus of their right leg.
The patient was started on 0.5 mg of varenicline (Chantix®) once a day, titrating to 1 mg twice daily after 1 week with the understanding that this was being used as an off-label medication. […] The patient returned to the academic movement disorders center 3 weeks after starting varenicline. […] The patient was scored by a blinded movement disorders expert using the SARA. The patient's total SARA score before taking 1 mg of varenicline twice daily was 22, whereas the score 3 weeks after starting varenicline was 8. The patient remained on varenicline for 8 weeks with continued efficacy but discontinued it owing to financial considerations.

The test system of another series is ataxia and imbalance. To be noted: case series and small controlled trials; cited from earlier work.
Series [2] concerns the target α4β2 nicotinic acetylcholine receptors (Homo sapiens, UniProt P17787+P43681). As to conditions: cited from earlier work.
For series [3] the following is noted: in vivo; cited from earlier work.
For series [4], the target named is α7 nicotinic acetylcholine receptors (Homo sapiens, UniProt P36544). To be noted: cited from earlier work.
Sequence of α7 nicotinic acetylcholine receptors (P36544 23-502): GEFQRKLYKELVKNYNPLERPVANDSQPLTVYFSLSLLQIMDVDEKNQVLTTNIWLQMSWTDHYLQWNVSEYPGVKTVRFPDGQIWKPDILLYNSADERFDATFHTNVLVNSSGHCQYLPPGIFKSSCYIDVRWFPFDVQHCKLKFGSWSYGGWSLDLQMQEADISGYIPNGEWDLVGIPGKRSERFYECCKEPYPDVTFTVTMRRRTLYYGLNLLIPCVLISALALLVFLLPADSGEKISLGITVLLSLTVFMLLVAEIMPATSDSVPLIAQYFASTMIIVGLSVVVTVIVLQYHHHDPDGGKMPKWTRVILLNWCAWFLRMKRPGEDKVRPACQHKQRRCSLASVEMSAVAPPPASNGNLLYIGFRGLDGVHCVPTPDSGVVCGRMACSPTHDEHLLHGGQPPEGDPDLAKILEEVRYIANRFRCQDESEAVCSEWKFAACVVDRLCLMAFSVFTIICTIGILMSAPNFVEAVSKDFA
In series [5] the test system is ataxia and imbalance in Fragile X-associated Tremor Ataxia syndrome (FXTAS). Briefly: Case report: person with FXTAS taking varenicline (Example 1). The series is classed as in vivo, human. As to conditions: for SARA score, functional staging for ataxia / SARA score, gait / SARA score, tandem walking: blinded video rating. On the procedure: The patient was a person with a nine-year history of postural and intention tremor of their arms and a four-year history of gait ataxia. Their symptoms became disabling in the past year with frequent falls despite the intermittent use of a walker. […] A timeline of the patient's clinical course is depicted in FIG. 1. […] One week after taking varenicline, they noted that their walking improved and they no longer needed assistance from a walker to ambulate. […] The patient was evaluated by the University of South Florida (USF) movement disorders center seven weeks after starting varenicline. Vital signs and physical examination were normal. Their neurological examination included a Mini Mental State Exam (MMSE) of 26/30, mild dysarthria, mild voice tremor, severe postural and intention tremor of their arms, mild rigidity, and moderate dysmetria in all extremities. They were able to get out of a chair without assistance, and continued to walk six meters five times (30 meters total) without rest or the assistance of a walker. They were able to tandem walk for two to three steps. The rest of their neurological exam, including cranial nerves, reflexes, motor and sensory examination, was within normal limits. The patient received a score of 5 (out of a maximum possible score=63) on a Beck's Depression Scale (BDI) (2). […] Chest X-ray was clear, with no evidence of neoplasia. The patient stopped varenicline seven weeks after starting it. Within 10 days, they reported a slight worsening of the residual ataxia and imbalance. Within three weeks, they again needed a walker for ambulation and began to fall daily. The patient returned to clinic off varenicline. […] They once again needed assistance to walk and was unable to tandem walk even with assistance. The rest of the neurological examination remained unchanged, including the postural and intention tremor. […] At week 11, the patient re-started varenicline one mg twice daily, and again noted improvement in ataxia within one week. Due to vivid dreams, the varenicline dose was decreased to one mg daily at week 12. The patient has taken varenicline for 22 weeks, with a sustained ataxia improvement. A videotape of the patient was scored by a blinded movement disorders expert using the SARA (Scale for Assessment and Rating of Ataxia) (3). The SARA scores on varenicline one mg b.i.d. were “two” for functional staging for ataxia (ataxic symptoms were present and were recognized by patient, but were still mild), “one” for tandem walking (the patient was able to tandem walk in less than perfect manner or the patient could tandem walk greater than four sequential steps but less than eight steps) and “zero” for gait (normal). The SARA scores after the patient had discontinued varenicline for three weeks included a “three” for functional staging for ataxia (ataxic symptoms considered overt and significant), “three” for tandem walking (the patient was considered too poorly coordinated to attempt the task), and “two” for gait (the patient walked with definite ataxia; may have needed intermittent support for walking or the examiner needed to walk with patient for safety sake).

The subject of series [6] is cerebellar symptoms of spinocerebellar ataxia (SCA) and Fragile-X-Associated Tremor Ataxia Syndrome (FXTAS). Briefly: Open-label varenicline in ataxic patients; SARA and CGI, blinded video assessment. The series is classed as in vivo, human. On the procedure:
DESIGN/METHODS: Seven patients from an academic movement disorders center with spinocerebellar ataxia (n=6) and […]=1), were treated with open-label varenicline 1 mg twice daily. Two patients had genetically confirmed SCA 3, 1 patient had genetically confirmed SCA 6, 3 patients had sporadic cerebellar ataxia with no family history, and 1 patient had genetically-confirmed FXTAS. Patients were treated for 4 weeks with varenicline, which was discontinued on day 30. They were assessed at baseline and after 4 weeks using the Scale for the Assessment and Rating of Ataxia (SARA) (Schmitz-Hubsch et al, 2006) and the Clinical Global Impression (CGI) scale. Ataxia experts blindly assessed videotapes of the patients. […] In the remaining 5 patients, there was a mean improvement of 2.4 points in gait scores and of 5 points for the total SARA scores with varenicline use.

Series [7] has as its system cerebellar symptoms of SCA type 3. The series can be described thus: Case report: person with SCA type 3 taking varenicline (Example 2, first patient). It is filed as in vivo, human. To be noted: for total SARA score: blinded video rating. The text has this:
The first patient was a person with a 16-year history of imbalance, gait dysfunction, and dysarthria who presented to an academic movement disorders center for management of their symptoms. […] Their medical history included one myocardial infarction 2 years ago, coronary artery disease, hypertension, and hyperlipidemia. […] On examination, the patient's vital signs and physical examination were normal. Their neurologic examination included a Mini-Mental Status Exam (MMSE) of 30/30, mild dysarthria, mild to moderate postural and intention tremor, mild dystonia in their arms, mild akinesia, and moderate dysmetria in all extremities. Fast alternating hand movements were irregular and marked by interruptions, and their heel to shin slide was severely abnormal bilaterally. Their gait was ataxic and […], and they required the constant use of a walker or the support of a cane to ambulate. Their cranial nerves and motor examination were normal, although there was mild decrease in […] sensory examination to light and deep touch in a stocking-glove distribution. There was increased tone and hyperreflexia in their lower extremities. […] After the evaluation, the patient started varenicline 0.5 mg twice daily for smoking cessation. The dose of varenicline was increased to 1 mg twice daily after one week. […] The patient returned to the academic movement disorders center one month after starting varenicline for routine follow-up. […] A videotape of the patient was scored by a blinded movement disorders expert using the SARA (Scale for Assessment and Rating of Ataxia) (1). The total SARA score prior to the patient taking varenicline 1 mg twice daily was 29, while the score one month after starting varenicline was 13.

The mark [8] stands for this setting: varenicline discontinued for three weeks.
[9] abbreviates: varenicline stopped after seven weeks.
Where [10] appears, read: 3 weeks after starting varenicline.
The mark [11] stands for this setting: of 5 remaining patients, 1 mg twice daily, 4 weeks.
[12] abbreviates: one month after starting varenicline.
[13] abbreviates: twenty-one days after first taking varenicline.

Sequence of α4β2 nicotinic acetylcholine receptors (P43681 29-627 limits assumed): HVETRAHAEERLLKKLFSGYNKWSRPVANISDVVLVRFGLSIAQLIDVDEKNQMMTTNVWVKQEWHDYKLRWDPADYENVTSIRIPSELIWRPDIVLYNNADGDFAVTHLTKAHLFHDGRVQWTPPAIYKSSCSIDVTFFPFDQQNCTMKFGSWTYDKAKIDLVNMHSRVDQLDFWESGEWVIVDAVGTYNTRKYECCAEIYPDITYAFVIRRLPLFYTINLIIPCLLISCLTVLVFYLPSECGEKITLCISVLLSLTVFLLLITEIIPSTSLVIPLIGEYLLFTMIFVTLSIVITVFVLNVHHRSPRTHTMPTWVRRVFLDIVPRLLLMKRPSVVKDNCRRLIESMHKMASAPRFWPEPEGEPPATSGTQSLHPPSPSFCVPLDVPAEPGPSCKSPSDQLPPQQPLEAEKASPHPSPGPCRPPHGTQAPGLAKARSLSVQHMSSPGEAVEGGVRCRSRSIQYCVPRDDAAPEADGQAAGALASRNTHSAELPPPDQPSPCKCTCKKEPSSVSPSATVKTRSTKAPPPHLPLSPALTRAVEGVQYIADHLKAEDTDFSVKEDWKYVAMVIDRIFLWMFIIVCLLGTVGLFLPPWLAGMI
Sequence of α4β2 nicotinic acetylcholine receptors (P17787 26-502): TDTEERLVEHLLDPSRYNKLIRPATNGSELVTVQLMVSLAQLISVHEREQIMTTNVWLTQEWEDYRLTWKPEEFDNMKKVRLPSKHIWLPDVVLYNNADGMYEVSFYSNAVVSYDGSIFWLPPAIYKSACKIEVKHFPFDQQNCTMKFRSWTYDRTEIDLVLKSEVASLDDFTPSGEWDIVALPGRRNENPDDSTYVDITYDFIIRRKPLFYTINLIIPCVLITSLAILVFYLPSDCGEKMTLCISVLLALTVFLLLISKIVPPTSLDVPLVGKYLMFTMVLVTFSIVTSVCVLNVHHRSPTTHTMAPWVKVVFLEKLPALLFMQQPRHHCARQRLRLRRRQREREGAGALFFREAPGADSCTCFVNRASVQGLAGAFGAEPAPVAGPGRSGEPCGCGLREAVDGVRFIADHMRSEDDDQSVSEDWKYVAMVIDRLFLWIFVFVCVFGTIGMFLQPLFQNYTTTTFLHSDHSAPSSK

Turning to `Cc1ccc(-c2nc3ccc(C)cn3c2CC(=O)N(C)C)cc1` [zolpidem], the “effect of prior medications on cerebellar symptoms” value (“effect of prior medications” for short) in series [1] is recorded as “to no avail”. Also, in the series on ataxia and imbalance, the “efficacy in ataxia and imbalance” value is “either conflicting results or limited efficacy”.
As for `c1cnc2cc3c(cc2n1)[C@@H]1CNC[C@H]3C1` [varenicline, 7,8,9,10-tetrahydro-6,10-methano-6H-pyrazino (2,3-h)(3) benzazepine], the “type of activity at α4β2 nicotinic acetylcholine receptors” value in series [2] was “highly selective partial agonist”. Moreover, in series [3], the adverse effects entry is “nausea, sleep disturbance, constipation, flatulence, and vomiting”; the “potential risks associated with use” value is “suicidal behavior, depressed mood, and agitation”. For the same compound, in series [4], the “type of activity at α7 nicotinic acetylcholine receptors” value is “full agonist”. Moreover, in series [5] (FXTAS patient), the “ataxia and imbalance after starting varenicline” value is on record as “greatly improved”; the “duration of sustained response after open-label resumption” value was “five”. In series [5] (after discontinuation), the “BDI score off varenicline” value is “had not changed” and the “neurological examination off varenicline” value is recorded as “returned to the pre-varenicline state”. Also, the “duration of varenicline use with sustained ataxia improvement” value in series [5] (dose decreased to one mg daily at week 12) came out at 22 weeks. In addition, in series [5] (on varenicline one mg b.i.d.), the “SARA score, functional staging for ataxia” value is “two”; the “SARA score, gait” value is “zero”; the “SARA score, tandem walking” value is reported as “one”. Also, in series [5] (one mg twice daily), the “onset of vivid dreaming after starting” value is reported as “two”; the side effect result is given as “vivid dreaming”; the smoking cessation result is on record as “helped them quit smoking in a few days”; the “time until walking improved and walker no longer needed” value was “One”. Also, the balance entry in series [5] (one mg twice daily, one week) is recorded as “marked improvement”. In addition, the “Beck's Depression Scale (BDI) score” value in series [5] (seven weeks after starting varenicline, maximum possible score 63) is reported as 5. For the same compound, the “distance walked without rest or assistance of a walker” value in series [5] (seven weeks after starting varenicline, six meters five times) is on record as 30 meters. Further, in series [5] (setting [8]), the “SARA score, functional staging for ataxia” value is reported as “three”; the “SARA score, gait” value is given as “two”; the “SARA score, tandem walking” value was “three”. In series [5] (setting [9]), the “time to slight worsening of residual ataxia and imbalance after stopping” value is on record as at most 10 days; the “time until walker again needed and daily falls after stopping” value is “three”. Further, the “duration of nausea after taking the medication” value in series [1] (0.5 mg once a day, titrating to 1 mg twice daily after 1 week) is on record as 7 days. In series [1] (setting [10]), the “speech, dysmetria, finger-to-nose and heel-to-shin maneuvers” value is listed as “markedly improved”; the “total SARA score” value was determined as 8. Moreover, the gait dysfunction result in series [1] (3 weeks after starting varenicline, could walk without assistance) is on record as “improved markedly”. Further, the “neurologic examination after discontinuation” value in series [1] (4 weeks after discontinuing varenicline) was “returned to prevarenicline status”. The “time to reported marked improvements in walking, coordination, speech and balance” value in series [1] (after starting varenicline) turned out to be 8 days. In series [1] (before taking 1 mg of varenicline twice daily), the “total SARA score” value was 22. In series [1] (discontinued owing to financial considerations), the “duration on varenicline with continued efficacy” value is given as 8 weeks. In addition, the “mean improvement in total SARA scores” value in series [6] (5 remaining patients, varenicline 1 mg twice daily, 4 weeks vs baseline) turned out to be 5 points. The “mean improvement in gait scores” value in series [6] (5 remaining patients, varenicline 1 mg twice daily, 4 weeks vs baseline, SARA) is given as 2.4 points. The “effect on cerebellar symptoms (conclusion)” value in series [6] (blinded video analysis of ataxic patients) was “effectively treat cerebellar symptoms”. Further, in series [6] (setting [11]), the “patients with marked improvement in gait as measured by the CGI” value is listed as “Three” and the “patients with moderate improvement in gait as measured by the CGI” value is given as 2 patients. Also, the “reason for discontinuation of varenicline” value in series [6] (two of seven patients (one SCA 6, one sporadic ataxia)) is “flu-like symptoms and increased tremor”. For the same compound, the “reduction of intake of cigarettes” value in series [6] (two smokers with marked improvement in gait, while taking varenicline) came to 50%. In addition, the “time to reported improvement in depth perception and easier, more stable walking” value in series [7] (0.5 mg twice daily, 1 mg twice daily after one week) is on record as “Ten”. For the same compound, in series [7] (setting [12]), the “gait dysfunction and akinesia” value is listed as “improved markedly”; the “limb dysmetria, fast alternating movements, finger to nose and heel-shin slide” value is “markedly improved”; the “total SARA score” value is reported as 13. Besides, the “total SARA score” value in series [7] (prior to taking varenicline 1 mg twice daily) was found to be 29. Also, in series [7] (setting [13]), the balance result is “markedly improved” and the “distance walked using only a cane rather than a walker” value was 3 blocks. Also, in series [7] (while taking varenicline), the smoking cessation entry is “did not stop smoking cigarettes”.
Turning to `CNCCC(Oc1ccc(C(F)(F)F)cc1)c1ccccc1` (stereo not drawn) [fluoxetine], the “efficacy in ataxia and imbalance” value with ataxia and imbalance was “either conflicting results or limited efficacy”.
For the compound `O=C1CC2(CCCC2)CC(=O)N1CCCCN1CCN(c2ncccn2)CC1` [buspirone], the “efficacy in ataxia and imbalance” value with ataxia and imbalance is given as “either conflicting results or limited efficacy”.
Regarding `O=C1Nc2ccc(Cl)cc2C(c2ccccc2Cl)=NC1O` (stereo not drawn) [lorazepam], the “effect of prior medications” value in series [1] was “to no avail”.
For the compound `Nc1nnc(-c2cccc(Cl)c2Cl)c(N)n1` [lamotrigine], the “efficacy in ataxia and imbalance” value in the series with ataxia and imbalance is given as “either conflicting results or limited efficacy”.
Take `O=C1CN=C(c2ccccc2Cl)c2cc([N+](=O)[O-])ccc2N1` [clonazapem]: in series [1], the “effect of prior medications” value is given as “to no avail”.

These data come from US9463190B2, “Methods of treating disease-induced ataxia and non-ataxic imbalance” (UNIVERSITY OF SOUTH FLORIDA, priority 2008, dated 2016).
